Source: patent US8372845B2, “Pyrazine derivatives as enac blockers” (Novartis AG, priority 2010, dated 2013)
Structures can show the parent of a compound that is named as a salt.

Assays:
[1] = Stability in human plasma; type: in vitro ADME; settings: pooled human plasma (lithium heparin), 1 μM compound, 37° C., 1 hour incubation
Method: The stability of the compounds of the invention in human plasma may be measured as follows:
Stability in Human Plasma
Blood was taken from healthy volunteers in lithium heparin tubes and plasma was prepared by centrifugal separation of blood cells at 1500 g. Plasma from at least 3 individuals was pooled and used for compound stability determination.
Compounds were prepared in 100% DMSO at a concentration of 10 mM and serially diluted to a concentration of 100 μM. Incubations were performed at a final concentration of 1 μM and were initiated by addition of 3 μl of 100 μM compound stock solution into 297 μl plasma, pre-warmed in a water bath to 37° C., followed by brief vortex mixing. 50 μl aliquots of plasma were removed at 4 timepoints over a 1 hour incubation period and quenched immediately by protein precipitation achieved by addition of the aliquot of plasma to a pre-prepared 96 well plate containing 150 μl of acetonitrile containing an appropriate internal standard. Acetonitrile quenched samples were vortex mixed followed by centrifugation for 20 minutes at 1500 g to remove the precipitated proteins. Initial compound levels (at time=0 minutes) was established by spiking compound into pre-quenched plasma at the same concentration as used in the incubation. The supernatant was then removed, diluted 1:1 with water and analysed for compound remaining by liquid chromatography-tandem mass spectrometry (Waters Acquity HPLC, Applied Biosystems API4000). The plasma elimination rate constant of the compound was calculated by fitting the peak area ratio of compound:internal standard to an exponential decay function and the half life calculated by division of the natural log of 2 by the elimination rate constant (Microsoft Excel).

[2] = biological target: T1, epithelial sodium channel (ENaC) (Homo sapiens, UniProt P37088+P51168+P51170); test: Short circuit current (ISC) measurements in Human Bronchial Epithelial cells (HBEC-ENaC); type: cell-based; settings: inhibition of amiloride-sensitive ISC, HBECs at air-liquid interface, Ussing chamber, apical addition
T1 construct: host or cells: primary Human Bronchial Epithelial cells (HBECs), differentiated at air-liquid interface
T1 sequence (P37088 1-669): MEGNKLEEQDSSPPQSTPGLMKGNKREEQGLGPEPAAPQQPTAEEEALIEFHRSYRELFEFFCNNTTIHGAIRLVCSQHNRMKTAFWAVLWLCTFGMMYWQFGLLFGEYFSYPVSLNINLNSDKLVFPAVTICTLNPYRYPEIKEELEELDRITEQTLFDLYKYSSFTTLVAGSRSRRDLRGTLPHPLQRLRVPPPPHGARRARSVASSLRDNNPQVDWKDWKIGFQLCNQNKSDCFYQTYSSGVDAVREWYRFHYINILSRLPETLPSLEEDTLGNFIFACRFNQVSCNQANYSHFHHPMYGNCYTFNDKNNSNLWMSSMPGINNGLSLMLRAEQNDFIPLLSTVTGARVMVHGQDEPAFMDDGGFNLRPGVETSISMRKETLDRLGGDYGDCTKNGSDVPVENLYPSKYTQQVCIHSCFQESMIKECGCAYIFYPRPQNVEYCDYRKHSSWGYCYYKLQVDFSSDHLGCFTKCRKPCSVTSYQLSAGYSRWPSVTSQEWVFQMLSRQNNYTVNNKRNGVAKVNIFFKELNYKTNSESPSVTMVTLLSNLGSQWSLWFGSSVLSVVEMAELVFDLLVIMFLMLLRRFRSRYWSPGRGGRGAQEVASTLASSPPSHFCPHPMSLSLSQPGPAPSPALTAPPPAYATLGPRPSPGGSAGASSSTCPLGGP
T1 sequence (P51168 1-640): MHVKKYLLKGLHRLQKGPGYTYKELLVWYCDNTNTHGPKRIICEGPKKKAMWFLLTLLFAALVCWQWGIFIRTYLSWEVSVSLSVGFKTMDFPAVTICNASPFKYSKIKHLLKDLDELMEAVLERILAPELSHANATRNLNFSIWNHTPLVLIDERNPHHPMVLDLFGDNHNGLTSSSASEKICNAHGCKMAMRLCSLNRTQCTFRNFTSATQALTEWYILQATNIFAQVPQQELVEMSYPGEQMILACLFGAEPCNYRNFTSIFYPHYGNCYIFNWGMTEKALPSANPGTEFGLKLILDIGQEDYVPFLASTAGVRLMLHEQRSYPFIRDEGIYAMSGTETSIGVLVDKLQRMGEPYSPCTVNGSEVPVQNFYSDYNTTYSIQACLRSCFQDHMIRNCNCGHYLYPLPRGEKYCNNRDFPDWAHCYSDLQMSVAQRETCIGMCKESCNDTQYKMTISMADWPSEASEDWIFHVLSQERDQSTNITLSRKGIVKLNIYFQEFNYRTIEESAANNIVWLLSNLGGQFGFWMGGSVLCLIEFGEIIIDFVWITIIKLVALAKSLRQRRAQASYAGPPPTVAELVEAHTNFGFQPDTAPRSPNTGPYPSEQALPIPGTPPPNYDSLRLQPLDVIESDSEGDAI
T1 sequence (P51170 1-649): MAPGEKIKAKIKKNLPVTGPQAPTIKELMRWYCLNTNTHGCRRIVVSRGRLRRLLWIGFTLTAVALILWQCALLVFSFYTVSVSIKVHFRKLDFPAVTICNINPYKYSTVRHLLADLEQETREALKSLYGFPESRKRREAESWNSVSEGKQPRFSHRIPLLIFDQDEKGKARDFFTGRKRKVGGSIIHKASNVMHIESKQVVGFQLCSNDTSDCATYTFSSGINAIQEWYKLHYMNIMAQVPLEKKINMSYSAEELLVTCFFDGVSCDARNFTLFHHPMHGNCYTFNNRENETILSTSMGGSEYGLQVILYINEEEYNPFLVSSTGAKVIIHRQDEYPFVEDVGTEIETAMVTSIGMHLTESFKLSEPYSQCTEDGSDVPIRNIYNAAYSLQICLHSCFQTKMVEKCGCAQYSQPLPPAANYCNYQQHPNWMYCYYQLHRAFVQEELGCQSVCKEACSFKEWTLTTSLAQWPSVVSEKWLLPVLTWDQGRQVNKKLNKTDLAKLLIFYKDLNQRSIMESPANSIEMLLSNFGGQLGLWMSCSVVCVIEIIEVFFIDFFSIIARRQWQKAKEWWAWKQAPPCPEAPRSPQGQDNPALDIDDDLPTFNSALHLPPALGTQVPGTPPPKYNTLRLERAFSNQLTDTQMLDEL
Method: Human Bronchial Epithelial cells (HBECs) (Cambrex) were cultured under air-liquid interface conditions to provide a well differentiated mucociliary phenotype.
Medium was changed every 48 hours until cells were 90% confluent. […] Cells were maintained submerged for the first 7 days in culture, after which time they were exposed to an apical air interface for the remainder of the culture period. At this time, media was changed to DMEM:F12 media containing 2% v/v Ultroser G for the remainder of culture. Amphotericin B was removed from all media 3 feeds prior to use in the Ussing Chambers. Cells were used between days 7 and 21 after establishment of the apical-air interface. At all stages of culture, cells were maintained at 37° C. in 5% CO2 in an air incubator.
Short Circuit Current (ISC) Measurements
Snapwell inserts were mounted in Vertical Diffusion Chambers (Costar) and were bathed with continuously gassed Ringer solution (5% CO2 in O2; pH 7.4) maintained at 37° C. containing (in mM): 120 NaCl, 25 NaHCO3, 3.3 KH2PO4, 0.8 K2HPO4, 1.2 CaCl2, 1.2 MgCl2, and 10 glucose. The solution osmolarity was between 280 and 300 mOsmol/kg H2O for all physiological salt solutions used. Cells were voltage clamped to 0 mV (model EVC4000; WPI). RT was measured by applying a 1- or 2-mV pulse at 30-s intervals and calculating RT by Ohm's law. Data were recorded using a PowerLab workstation (ADInstruments).
Test compounds were prepared as a 10 mM stock solution in DMSO (95%). Serial 3-fold dilutions were freshly prepared in an appropriate vehicle (distilled H2O or Ringers solution). The initial concentration was added to the apical chamber as a 1000× concentrate in 5 μL, resulting in a final 1× concentration the 5 mL volume of the Ussing chamber. Subsequent additions of compound were added in a 3.3 μL volume of the 1000× serially diluted stock solution. At the completion of the concentration-response experiment, amiloride (10 μM) was added into the apical chamber to enable the total amiloride-sensitive current to be measured. An amiloride control IC50 was established at the start of each experiment.
Results are expressed as the mean % inhibition of the amiloride-sensitive ISC. […] Cell inserts were typically run in duplicate and the IC50 calculated on the mean % inhibition data.

| Compound | half-life at 1 μM [1] | IC50 [2] |
| --- | --- | --- |
| CCCN(CCC)C(=O)COC(=O)CCNS(=O)(=O)c1cccc(C(=O)N2CCC3(CC2)CN/C(=N\C(=O)c2nc(Cl)c(N)nc2N)N3)c1 [Example 1.0, 3-(3-{2-[(E)-3,5-Diamino-6-chloro-pyrazine-2-carbonylimino]-1,3,8-triaza-spiro[4.5]decane-8-carbonyl}-benzenesulfonylamino)-propionic acid dipropylcarbamoylmethyl ester succinate salt] | 2 min | 17 nM |
| CN(CCO)C(=O)COC(=O)COc1ccc(CCC(=O)N2CCC3(CC2)CN/C(=N/C(=O)c2nc(Cl)c(N)nc2N)N3)cc1 [Example 1.1, [4-(3-{2-[(Z)-3,5-Diamino-6-chloro-pyrazine-2-carbonylimino]-1,3,8-triaza-spiro[4.5]dec-8-yl}-3-oxo-propyl)-phenoxy]-acetic acid [(2-hydroxy-ethyl)-methyl-carbamoyl]-methyl ester] |  | 419 nM |
| Nc1nc(N)c(C(=O)/N=C2\NCC3(CCN(C(=O)CCc4ccc(OCC(=O)OCC(=O)OC5CCCCC5)cc4)CC3)N2)nc1Cl [Example 1.2, [4-(3-{2-[(E)-3,5-Diamino-6-chloro-pyrazine-2-carbonylimino]-1,3,8-triaza-spiro[4.5]dec-8-yl}-3-oxo-propyl)-phenoxy]-acetic acid cyclohexyl oxycarbonylmethyl ester] | 3 min | 10 nM |
| Nc1nc(N)c(C(=O)/N=C2\NCC3(CCN(C(=O)c4cccc(S(=O)(=O)NCCC(=O)OCC(=O)OC5CCCCC5)c4)CC3)N2)nc1Cl [Example 1.3, 3-(3-{2-[(E)-3,5-Diamino-6-chloro-pyrazine-2-carbonylimino]-1,3,8-triaza-spiro[4.5]decane-8-carbonyl}-benzenesulfonylamino)-propionic acid cyclohexyloxy carbonylmethyl ester] | 4 min | 3 nM |
| CN(C)C(=O)COC(=O)COc1ccc(CCC(=O)N2CCC3(CC2)CN/C(=N\C(=O)c2nc(Cl)c(N)nc2N)N3)cc1 [Example 1.4, [4-(3-{2-[(E)-3,5-Diamino-6-chloro-pyrazine-2-carbonylimino]-1,3,8-triaza-spiro[4.5]dec-8-yl}-3-oxo-propyl)-phenoxy]-acetic acid dimethylcarbamoylmethyl ester] |  | 302 nM |
| CCCN(CCC)C(=O)COC(=O)COc1ccc(CCC(=O)N2CCC3(CC2)CN/C(=N\C(=O)c2nc(Cl)c(N)nc2N)N3)cc1 [Example 2.0, [4-(3-{2-[(E)-3,5-Diamino-6-chloro-pyrazine-2-carbonylimino]-1,3,8-triaza-spiro[4.5]dec-8-yl}-3-oxo-propyl)-phenoxy]-acetic acid dipropylcarbamoylmethyl ester] | 1 min | 32 nM |
| CC(C)(C)OC(=O)COC(=O)COc1ccc(CCC(=O)N2CCC3(CC2)CN/C(=N\C(=O)c2nc(Cl)c(N)nc2N)N3)cc1 [Example 2.1, [4-(3-{2-[(E)-3,5-Diamino-6-chloro-pyrazine-2-carbonylimino]-1,3,8-triaza-spiro[4.5]dec-8-yl}-3-oxo-propyl)-phenoxy]-acetic acid tert-butoxycarbonylmethyl ester] | 5 min | 30 nM |
| Nc1nc(N)c(C(=O)/N=C2\NCC3(CCN(C(=O)CCc4ccc(OCC(=O)OCC(=O)OCc5ccccc5)cc4)CC3)N2)nc1Cl [Example 2.2, [4-(3-{2-[(E)-3,5-Diamino-6-chloro-pyrazine-2-carbonylimino]-1,3,8-triaza-spiro[4.5]dec-8-yl}-3-oxo-propyl)-phenoxy]-acetic acid benzyloxycarbonylmethyl ester] |  | 12 nM |
| CCN(CC)C(=O)COC(=O)COc1ccc(CCC(=O)N2CCC3(CC2)CN/C(=N\C(=O)c2nc(Cl)c(N)nc2N)N3)cc1 [Example 2.3, [4-(3-{2-[(E)-3,5-Diamino-6-chloro-pyrazine-2-carbonylimino]-1,3,8-triaza-spiro[4.5]dec-8-yl}-3-oxo-propyl)-phenoxy]-acetic acid diethylcarbamoylmethyl ester] |  | 89 nM |
| Nc1nc(N)c(C(=O)/N=C2\NCC3(CCN(C(=O)CCc4ccc(OCC(=O)OCC(=O)N5CCCCC5)cc4)CC3)N2)nc1Cl [Example 2.4, [4-(3-{2-[(E)-3,5-Diamino-6-chloro-pyrazine-2-carbonylimino]-1,3,8-triaza-spiro[4.5]dec-8-yl}-3-oxo-propyl)-phenoxy]-acetic acid 2-oxo-2-piperidin-1-yl-ethyl ester] |  | 110 nM |
